Test results as given in PubChem BioAssay (NCI).
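Protocol summary: plate cells (96-well), add compound at 5 concentrations, incubate 48 h, interpolate endpoints linearly. The concentration for full growth arrest is given as TGI.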

Key:
Experiment in all cases: growth of human tumour cells (NCI), 48 h
M14 melanoma = system: M14 melanoma
NCI-H23 lung = system: NCI-H23 lung
SW-620 colon = system: SW-620 colon
ACHN renal = system: ACHN renal
COLO 205 colon = system: COLO 205 colon
MOLT-4 leukemia = system: MOLT-4 leukemia
MCF7 breast = system: MCF7 breast
BT-549 breast = system: BT-549 breast
OVCAR-4 ovarian = system: OVCAR-4 ovarian
HCT-15 colon = system: HCT-15 colon
HCC-2998 colon = system: HCC-2998 colon
786-0 renal = system: 786-0 renal
CCRF-CEM leukemia = system: CCRF-CEM leukemia
HOP-92 NSCLC = system: HOP-92 NSCLC
HS 578T breast = system: HS 578T breast
IGROV1 ovarian = system: IGROV1 ovarian
SN12C renal = system: SN12C renal
MALME-3M melanoma = system: MALME-3M melanoma
NCI-H460 lung = system: NCI-H460 lung
MDA-N = system: MDA-N
EKVX NSCLC = system: EKVX NSCLC
SF-539 CNS = system: SF-539 CNS
OVCAR-5 ovarian = system: OVCAR-5 ovarian
HCT-116 colon = system: HCT-116 colon
SF-268 CNS = system: SF-268 CNS
TK-10 renal = system: TK-10 renal
SNB-19 CNS = system: SNB-19 CNS
HT29 colon = system: HT29 colon
SK-OV-3 ovarian = system: SK-OV-3 ovarian
SK-MEL-2 melanoma = system: SK-MEL-2 melanoma
MDA-MB-435 = system: MDA-MB-435
UO-31 renal = system: UO-31 renal
HL-60(TB) leukemia = system: HL-60(TB) leukemia
NCI-H226 lung = system: NCI-H226 lung
A549 NSCLC = system: A549 NSCLC
OVCAR-8 ovarian = system: OVCAR-8 ovarian
SK-MEL-28 melanoma = system: SK-MEL-28 melanoma
NCI/ADR-RES ovarian = system: NCI/ADR-RES ovarian
SF-295 CNS = system: SF-295 CNS
KM12 colon = system: KM12 colon
UACC-257 melanoma = system: UACC-257 melanoma
K-562 leukemia = system: K-562 leukemia
HOP-62 NSCLC = system: HOP-62 NSCLC
OVCAR-3 ovarian = system: OVCAR-3 ovarian
PC-3 prostate = system: PC-3 prostate
A498 renal = system: A498 renal
LOX IMVI melanoma = system: LOX IMVI melanoma
RPMI-8226 leukemia = system: RPMI-8226 leukemia
CAKI-1 renal = system: CAKI-1 renal
SNB-75 CNS = system: SNB-75 CNS
DU-145 prostate = system: DU-145 prostate
T-47D breast = system: T-47D breast

Measured: TGI

CC(C)=CCC[C@@H](C)C1=C(O)C(c2c(I)c(=O)n(C)c(=O)n2C)=C(C)C(=O)C1=O
> 100 µM: M14 melanoma | NCI-H23 lung | SW-620 colon | ACHN renal | COLO 205 colon | MOLT-4 leukemia | MCF7 breast | BT-549 breast | OVCAR-4 ovarian | HCT-15 colon | HCC-2998 colon | 786-0 renal | CCRF-CEM leukemia | HOP-92 NSCLC | HS 578T breast | IGROV1 ovarian | SN12C renal | MALME-3M melanoma | NCI-H460 lung | MDA-N | EKVX NSCLC | SF-539 CNS | OVCAR-5 ovarian | HCT-116 colon | SF-268 CNS | TK-10 renal | SNB-19 CNS | HT29 colon | SK-OV-3 ovarian | SK-MEL-2 melanoma | MDA-MB-435 | UO-31 renal | HL-60(TB) leukemia | NCI-H226 lung | A549 NSCLC | OVCAR-8 ovarian | SK-MEL-28 melanoma | NCI/ADR-RES ovarian | SF-295 CNS | KM12 colon | UACC-257 melanoma | K-562 leukemia | HOP-62 NSCLC | OVCAR-3 ovarian | PC-3 prostate | A498 renal | LOX IMVI melanoma | RPMI-8226 leukemia | CAKI-1 renal | SNB-75 CNS | DU-145 prostate | T-47D breast
